Measured values published in patent US20090088472A1, “Protective Agent for Neuronal Cell Comprising Amidino Derivative as Active Ingredient” (priority 2006, published 2009).

How the values were obtained:
[1] = tested on: retinal neuronal cells (RGC in ganglion cell layer, inner plexiform layer) damaged by NMDA; test: NMDA-induced retinal damage in rats (intravitreal administration, histology after 14 days); assay type: in vivo; settings: rat, 14 days after administration
Description: In order to study the effect of protecting a retinal neuronal cell of a compound represented by the general formula [I] or a salt thereof, the effects of nafamostat and FUT-187, each of which is a compound represented by the general formula [I] or a salt thereof on NMDA-induced retinal damage in rats were studied. As comparative compounds, camostat (N,N-dimethylcarbamoylmethyl-4-(4-guanidinobenzoyloxy)phenylacetate methanesulfonate) represented by the following formula [II] and gabexate (ethyl-4-(6-guanidinohexanoyloxy)benzoate methanesulfonate) represented by the following formula [III] were used.
Each of NMDA, nafamostat and FUT-187 was dissolved in distilled water, whereby an NMDA solution, a nafamostat solution, and an FUT-187 aqueous solution were obtained. Then, the solutions were appropriately mixed, whereby an aqueous solution of 4 mM NMDA and 2 mM nafamostat (hereinafter referred to as “Test liquid 1”) and an aqueous solution of 4 mM NMDA and 2 mM FUT-187 (hereinafter referred to as “Test liquid 2”) were obtained. In the same manner, an aqueous solution of 4 mM NMDA and 20 mM camostat (hereinafter referred to as “Comparative test liquid 1”) and an aqueous solution of 4 mM NMDA and 20 mM gabexate (hereinafter referred to as “Comparative test liquid 2”) were obtained. Further, by mixing the NMDA solution and distilled water, a 4 mM NMDA liquid (hereinafter referred to as “NMDA liquid”) was obtained.
Mydriasis was induced in a rat with a 0.5% (w/v) tropicamide-0.5% phenylephrine hydrochloride ophthalmic solution, and then, anesthesia was induced with 3% halothane, and then, anesthesia was maintained with 1% halothane (halothane was vaporized with 0.5 L oxygen/min and 1.5 L dinitrogen monoxide/min). Then, a 0.4% (w/v) oxybuprocaine hydrochloride ophthalmic solution was instilled to the rat to anesthetize the surface of the eyeball, and by using a 32-gauge Hamilton microsyringe, 5 μl of Test liquid 1 was intravitreally administered under an operating microscope. Further, the same procedure as above was carried out by sequentially altering Test liquid 1 into distilled water, NMDA liquid, Test liquid 2, Comparative test liquid 1 and Comparative test liquid 2, respectively. Then, 14 days after the administration, the eyeball was taken out and fixed in 2.5% glutaraldehyde-10% neutral buffered formalin for 1 day. Thereafter, the cornea and lens were excised, and the 2.5% glutaraldehyde-10% neutral buffered formalin was changed to 10% neutral buffered formalin. At a later date, dehydration was carried out, followed by paraffin embedding and slicing and pathological tissue sections (with a thickness of 3 μm) stained with hematoxylin-eosin (HE) were prepared. From 8 sections which had been prepared by slicing the specimen with an interval of 15 μm per one eye such that the optic papilla was contained, 3 sections were optionally selected. With regard to the thus selected sections, a photograph of the retina in the range of from 1 to 1.5 mm on the left or right side from the optic papilla was taken, and the number of cells in the ganglion cell layer (GCL) in the retina (RGC number) and the thickness of the inner plexiform layer (IPL) were measured. From these measured values and in accordance with Equation 1 and Equation 2, a ganglion cell death inhibition rate and an IPL thinning inhibition rate were calculated. […]

trypsin = settings: stated as known; cited from earlier work
[2] = 100 nmol/eye co-administered with 4 mM NMDA (5 μl)
[3] = 10 nmol/eye co-administered with 4 mM NMDA (5 μl)
[4] = 10 nmol/eye co-administered with 4 mM NMDA (5 μl), listed as nafamostat
[5] = 10 nmol/eye co-administered with 4 mM NMDA (5 μl), listed as FUT-187

| SMILES | Ganglion cell death inhibition rate [1, 2] [%] | IPL thinning inhibition rate [1, 2] [%] | trypsin inhibitory activity (trypsin) | Ganglion cell death inhibition rate [1, 3] [%] | IPL thinning inhibition rate [1, 3] [%] | Ganglion cell death inhibition rate [1, 4] | IPL thinning inhibition rate [1, 4] | Ganglion cell death inhibition rate [1, 5] | IPL thinning inhibition rate [1, 5] |
| --- | --- | --- | --- | --- | --- | --- | --- | --- | --- |
| CCOC(=O)c1ccc(OC(=O)CCCCCNC(=N)N)cc1 [Comparative test liquid 2, ethyl-4-(6-guanidinohexanoyloxy)benzoate methanesulfonate] | 17.8 | 2.4 | have a trypsin inhibitory activity | – | – | – | – | – | – |
| N=C(N)Nc1ccc(C(=O)Oc2ccc3cc(C(=N)N)ccc3c2)cc1 [Test liquid 1, 6′-amidino-2′-naphthyl-4-guanidinobenzoate dimethanesulfonate] | – | – | have the same activity | 78.8 | 54.8 | high | high | – | – |
| N=C(N)c1ccc2cc(OC(=O)c3ccc(NC4=NCCN4)cc3)ccc2c1 [Test liquid 2, 6′-amidino-2′-naphthyl-(4-(4,5-dihydro-1H-2-imidazolyl)amino)benzoate dimethanesulfonate] | – | – | have the same activity | 136.8 | 63.1 | – | – | high | high |
